These results are taken from patent US6716818B2, “Caspase inhibitors and the use thereof” (Cytovia, Inc., priority 1999, dated 2004).

cmk = not defined here

Broadly, the IC50 is the midpoint of a concentration-inhibition curve.

In one experiment the target is T1, rCaspase 3 (Homo sapiens, UniProt P42574).
T1 construct: purchased PharMingen, a Becton division company, San Diego, Calif
T1 sequence (P42574 29-175 limits assumed): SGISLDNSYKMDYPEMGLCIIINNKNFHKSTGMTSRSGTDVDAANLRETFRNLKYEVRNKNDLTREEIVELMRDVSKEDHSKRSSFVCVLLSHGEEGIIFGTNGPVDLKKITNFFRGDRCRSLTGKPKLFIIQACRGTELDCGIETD
The experiment in a line: fluorometric caspase-3 enzyme assay (Ac-DEVD-AMC substrate). Type of experiment: biochemical. The following applies: 2 ng rCaspase 3, 10 μM Ac-DEVD-AMC, 37° C., 30 minutes. Here is the method:
Enzyme activity was measured using synthetic peptide substrates attached to a fluorogenic leaving group. Cleavage of the synthetic substrate by the enzyme results in a fluorescent signal which is read in a spectrofluorometer or in a fluorometric microtiter plate reader.
12 concentrations of the testing compound ranged from 30 μM to […] were tested in the enzyme assay. The enzyme reaction was conducted in the presence of 2 ng rCaspase 3 (purchased from PharMingen, a Becton division company, San Diego, Calif.), various concentrations of testing compound, 10 μM caspase 3 substrate Ac-DEVD-AMC (SEQ ID NO:3) (purchased from Quality Controlled Biochemicals, Inc. Hopkinton, Mass.) and caspase buffer (20 mM PIPES, 100 mM NaCl, 10 mM DTT, 1 mM EDTA, 0.1% CHAPS and 10% sucrose, pH 7.2) in a total volume of 100 μl. The enzyme reaction was carried out in a 96-well plate and incubated at 37° C. for 30 minutes. The plate was then read with a fluorescence plate reader (EG&G WALLAG 1420-002) using excitation filter at 355 nm/emission filter at 460 nm. The data was analyzed using GraphPrism software.

Experiment [1] deals with dopaminergic neurons grafted to hemiparkinsonian rats. To be noted: cited from earlier work.
[2] abbreviates: treatment of the embryonic nigral cell suspension.

As to `CCOC(=O)NC(C(=O)NC(CC(=O)O)C(=O)CF)C(C)C` (stereo not drawn) [Ethoxycarbonyl-Val-Asp-fmk], the IC50 on rCaspase 3 came to 0.058 µM.

Molecule `CC(C)C(NC(=O)OCC1CCCCC1)C(=O)NC(CC(=O)O)C(=O)CF` (stereo not drawn) [Cyclohexylmethoxycarbonyl-Val-Asp-fmk] gave an IC50 on rCaspase 3 of 0.072 µM.

As for “Ac-YVAD-cmk (reading uncertain; also: printed as Ac-YVAD-cmk)”, the functional recovery entry in experiment [1] (hemiparkinsonian rats) is on record as “substantially improved functional recovery”. Besides, in experiment [1] (setting [2]), the “DNA fragmentation and apoptosis in transplants” value is “mitigated DNA fragmentation and reduced apoptosis in transplants”; the “survival of dopaminergic neurons grafted to hemiparkinsonian rats” value is reported as “increased survival of dopaminergic neurons”.
